Results on two molecules are retold here after US20020042403A1, “Use of vitamin D analogs to treat conditions related to increased oxidative stress” (priority 1998, published 2002).

Molecules are shown by their SMILES.

Data set [1] concerns keratinocytes. Nature of the data set: cis-parinaric acid (PnA) assay of AMVN-induced phospholipid oxidation in live keratinocytes. In kind it is cell-based, human. The protocol:
Comparison of the Antioxidant Potency of ST-630 with that of Calcitriol and Alpha-Tocopherol in Live Keratinocytes Using the Cis-parinaric Acid (PnA) assay […].
Keratinocytes were incubated in the presence of a complex of PnA with human serum albumin (PnA-HSA) for up to […] to incorporate PnA into cellular phospholipids. […] The incorporation of PnA in the various phospholipids was differential and the amount of PnA incorporated was in the following order: PC>PEA>PI>PS>SPH>DPG. The constituent phospholipids were separated from the total lipid extract by HPLC. Major fluorescence peaks were identified using authentic phospholipids standards including DPG, PI, PEA, PS, PC and SPH.
To determine the effects of ST-630 on keratinocytes subjected to oxidative stress cell suspensions labeled with PnA were incubated with or without ST-630 (5-500 nM) in the dark at 37° C. for 1 hr in the presence of […] AMVN. Based on the known rate constant of AMVN decomposition under the experimental conditions employed (Niki, 1990), at 0.5 mM it can be estimated that 2.4 nanomoles (nmoles) of peroxyl radicals are generated per hour at 37° C. in each incubation containing 10^6 cells. Incubation of keratinocytes with AMVN for 1 hr induced significant oxidation of all the detected phospholipids.

Data set [2] concerns human keratinocyte cells. Nature of the data set: AMVN-induced hypodiploidy (apoptosis) in keratinocytes, flow cytometric analysis. In kind it is cell-based. The text has this:
Nucleus/DNA of cells treated with chemical or physical agents undergo changes primarily by the activation of the nucleases, before they lose the membrane integrity. Such changes are due to the loss of DNA or fragmentation of the nucleus into apoptotic bodies. Flow cytomeric analysis of a population of cells can reveal the appearance of a hypodiploid population and changes in the stages of the cell cycle.
AMVN induces changes in the cell cycle pattern and it can be modified either by calcitriol or ST-630. […] AMVN-derived peroxyl radicals primarily cause damage to the DNA and repair of DNA is accomplished during the G1 or G2 block. When keratinocytes were treated with various concentrations of ST-630 or calcitriol, and subsequently exposed to AMVN there was a considerable reduction in the level of hypodiploid cells. This effect was concentration-dependent. […] The highest concentration of calcitriol used, i.e. 500 nM reduced the hypodiploidy by 60%. […] 10 nM of ST-630 blocked the hypodiploidy by 60%.

For data set [3], the system named is Propionibacterium acnes. Description: antibacterial disc inhibition zone test. In kind it is cell-based. As to conditions: 6 mm filter paper discs, 48 hr at 36° C. On the procedure: Propionibacterium acnes, the target of inflammation in acne, was tested for its sensitivity to ST-630 and calcitriol using the inhibition method standardly employed for assessment of antibiotic efficiency. The strain (lyophilized) P. acnes (batch # 96-09SV) was received from the US type culture collection (Rockville, Md.). It was revitalized in 0.5 ml freshly boiled (10 min) reinforced Clostridial medium. ST-630 or calcitriol dissolved in 5.0 μl DMSO were applied onto the top of sterilized discs made of filter paper (6 mm). Erythromycin (15 μg) and DMSO (5.0 μl) were used as controls (positive and negative, respectively). The plates were incubated for 48 hr at 36° C. and the diameter of the inhibition zone was measured. […] The antibacterial activity of ST-630 at concentration 12.8 μg was about 2.7-fold lower than that of 15 μg of erythromycin. We conclude that ST-630 (but not calcitriol) exerts a significant inhibitory antibacterial activity towards P. acnes.

Data set [4] concerns human neutrophils (PMNLs). Nature of the data set: oxidative burst (superoxide production, cytochrome c reduction) in human neutrophils. In kind it is cell-based. The text has this: This example provides studies of oxidative burst and chemotaxis in human neutrophils. Oxidative (respiratory) burst in polymorphonuclear nuetrophils (PMN) is a major mechanism of defense against bacterial and/or viral pathogens. Oxidative burst is a complex process resulting in the generation by PMN of a huge amount of oxygen free radicals (superoxide and hydroxyl radicals) and chemically reactive substances—hydrogen peroxide and hypochlorite. The mechanism of cell activation involves such steps as increase of intracellular Ca^2+ concentration upon the interaction of activator, increasing the activity of protein kinase C, activation of NADPH oxidase with subsequent generation of superoxide radicals and hydrogen peroxide in the phagosomes and in the surrounding area, releasing and activation of myeloperoxidase and production of hypochlorite (HOCL).
The respiratory burst in PMNLs (isolated from fresh heparinized whole blood by dextran sedimentation) was initiated by the addition of N-formylmethionyl-leucyl-phenylalanine-methylester, FLPM (10^−7M), phorbol12,13-miristate, acetate, PMA (0.01 μg/ml) and opsonized zimozan (1.0 mg/ml). Superoxide production was assayed by the superoxide dismutase-22 inhibitable reduction of cytochrome c. […]

Data set [5] relates to cultured keratinocytes. As to conditions: cited from earlier work.
Data set [6] deals with cultured human keratinocytes. Nature of the data set: 3H-thymidine incorporation into keratinocyte DNA (proliferation). Conditions: 42 h and 66 h after initial dosing with 10^-8 M. In kind it is cell-based. The protocol: Two experimental approaches were performed to assess the effect of ST-630 on the proliferation of cultured human keratinocytes. The first one was the ^3H-thymidine incorporation experiments that involved the use of a radiolabeled nucleotide which is specifically found in newly synthesized DNA molecules only. The second approach used in this study was the basal cell count. Although it is tedious, the second method is a more definitive way to determine cellular proliferation. Our results clearly establish the potency and the long-lasting effects of ST-630 in inhibiting cellular proliferation as determined by ^3H-thymidine and basal cell count.

Data set [7] concerns human neutrophils. Nature of the data set: chemotaxis in human neutrophils, multiwell chamber with FLPM. In kind it is cell-based. As to conditions: higher concentrations of FLPM as chemotactic factor. The text has this: For chemotaxis assay, chemotactic solution (medium 199 containing 0.5% BSA and FLPM) and multiwell chamber were used. The numbers of migrated neutrophils for different concentrations of FLPM (as a chemotactic factor) were within the usually observable range (see Table 4 in the Appendix). […] Despite this, the data are consistent with the effects of these compounds on superoxide release. Both ST-630 and calcitriol appear to be inhibitory when higher concentrations of FLPM were used.

In the case of `C=C1/C(=C\C=C2/CCC[C@]3(C)[C@@H]([C@H](C)CCCC(C)(C)O)CC[C@@H]23)C[C@@H](O)C[C@@H]1O` [calcitriol, reference compound], the “concentration giving maximum antioxidant effectiveness/protection against AMVN-induced oxidation” value in data set [1] (PnA-labeled keratinocytes, 0.5 mM AMVN, 1 hr, 37° C.) was 25 to 50 nM. Further, the “concentration-dependency of the protective effect” value in data set [1] (PnA-labeled keratinocytes, AMVN) was “two-phase protection pattern”. Besides, the “reduction of AMVN-induced hypodiploidy” value was 40% in data set [2] (10 nM) and 60% in data set [2] (500 nM). Also, the “effect on cell cycle” value in data set [2] (10 nM, then AMVN) is “blocked the cells at the G2/M phase”. Further, the “antibacterial activity (inhibition zone)” value in data set [3] is listed as “Neither DMSO nor calcitriol exerted any antibacterial activity”. Moreover, the “superoxide release with known stimulants (FLPM, PMA, opsonized zymosan)” value in data set [4] is recorded as “act to prime for supertoxide release”. Also, the “metabolism in cultured keratinocytes” value in data set [5] is “rapidly metabolized”. In addition, the “inhibitory (antiproliferative) activity with time” value in data set [6] is reported as “diminished with time”. Further, in data set [7], the effect on chemotaxis result was “inhibitory”.

For the molecule `Cc1c(C)c2c(c(C)c1O)CC[C@@](C)(CCC[C@H](C)CCC[C@H](C)CCCC(C)C)O2` [vitamin E, Alpha-Tocopherol, reference compound], in data set [1] (concentrations 250 and 500 nm), the “antioxidant action compared with the other compounds” value was “comparable to that of ST-630”.
